“Also recorded” adds a separate entry of the source. Read-outs that look alike come from different tables or passages of the source. No end group written: not given here.
How the values were obtained:
cecal tissue explants = conditions: mouse, in vivo
mice = type: in vivo, mouse
human brain pericytes = test: IL-8 secretion from cultured pericytes (ELISA); type: cell-based
Method: Primary human cultured brain vascular pericytes (ScienCell, #1200) were routinely cultured in special medium with supplement, FBS and penicillin streptomycin provided by the cell's vendor (ScienCell, #1201). Cells were subcultured when confluent and used up to passage 10. For secretion assays these were performed on early passage cells (passages 3-8). Cytokine secretion in cell culture medium was determined using ELISA based assays against IL-8 (Biolegend, 431504). The effect of CGRP on cultured pericytes was determined by incubating pericytes for 1 h with human CGRPB (Cayman, 24725).

[1] = test system: C. difficile M7404 (A-/B+); test: CDI mouse model, hypervirulent strain M7404 (TcdA-/TcdB2); conditions: for fatality: CDI with M7404 (A-/B+), mice; for histopathological scores of colitis: surviving mice, CDI with M7404
C. difficile 630 Δerm [2] = test: C. difficile growth in vitro (OD600); conditions: 20 μM, 24 h
C. difficile 630 Δerm [3] = test: Antibiotic-treatment-induced CDI mouse model, C. difficile 630 Δerm; conditions: for histopathological scores: CDI mouse model, 630 Δerm, FIG. 4D; for histopathological scores / pathogen burden (C. difficile CFUs in faeces): WT mice; for pathogen burden (C. difficile CFUs in faeces): day 2 after infection
mouse footpads = conditions: for oedema induced by TcdB2: footpad injection of TcdB2, antagonist pre-treatment
Method: The footpad toxin injection assay was performed as previously described. Briefly, mice were restrained in an incontinence pad and the footpad was held and subsequently injected using a 29.5G syringe into the plantar surface. […] Paw diameter changes were assessed by calculating a ratio relative to the un-injected foot. For each test toxin, 500 ng were administered in a volume of 20 μl of normal saline. Pharmacological assays were performed in female CDI mice, with pre-treatment with drugs 30 min to 1 h prior to toxin injection. For experiments involving transgenic mice, experiments were performed in male and female mice (age matched, 8-15 weeks).

[4] = cecum injection of TcdB (6 μg), mice pretreated with antagonist 30 min to 1 h before, FIG. 4C

Molecule	CGRP secretion (cecal tissue explants)	histopathological scores (mice; mouse, in vivo)	fatality [1]	histopathological scores of colitis [1]	histopathological scores (mice; [4])	C. difficile growth rate / fitness (OD600) (C. difficile 630 Δerm [2])	histopathological scores (C. difficile 630 Δerm [3])	pathogen burden (C. difficile CFUs in faeces) (C. difficile 630 Δerm [3])	oedema induced by TcdB2 (mouse footpads)	other results
C=C(C)[C@]12C[C@@H](C)[C@@]34O[C@](Cc5ccccc5)(O[C@@H]1[C@@H]3C=C(COC(=O)Cc1ccc(O)c(OC)c1)C[C@]1(O)C(=O)C(C)=C[C@@H]41)O2 [RTX, resiniferatoxin]	reduced									SP levels (cecal tissue explants): reduced SP levels; histopathology upon TcdB administration (mice; mouse, in vivo): less severe histopathology
substance P (RPKPQQFFGLM; not fully specified (C-terminus); ends and bridges not checked; UniProt P20366 58-68, looked up) [neuropeptide composed of a chain of 11 amino acids, tachykinin family]	restored	restored histopathological scores								susceptibility to TcdB (histopathology) (mice; mouse, in vivo): restored the susceptibility
CGRP: human CGRPβ (Cayman, 24725) added to cultured pericytes (ACNTATCVTHRLAGLLSRSGGMVKSNFVPTNVGSKAF; ends and bridges not checked; cysteine pairing not given here; UniProt P10092 82-118, looked up)										IL-8 secretion (human brain pericytes): induced secretion of IL-8
C[C@@H](O[C@H]1OCCN(Cc2n[nH]c(=O)[nH]2)[C@H]1c1ccc(F)cc1)c1cc(C(F)(F)F)cc(C(F)(F)F)c1 [aprepitant]			markedly reduced	markedly reduced	reduced histopathological scores	not affected; also recorded: Neither drug influenced C. difficile growth rate	reduced histopathological scores	reduced pathogen burden	prevented	effect on C. difficile colonization and histopathological scores (C. difficile 630 Δerm [3]; Tac1 KO mice): nor had an effect; oedema induced by TcdA (mouse footpads; footpad injection of TcdA, antagonist pre-treatment): prevented; also recorded: blocked; oedema induced by TcdB2 (mouse footpads; listed as Aprepitant): can prevent oedema induced by TcdB2; oedema induced by TcdB (mouse footpads; footpad injection of TcdB, antagonist pre-treatment): prevented oedema induced by TcdB; oedema induced by GTD-ciDT (mouse footpads; footpad, Tac1-Cre mice infected with AAV-DTR): blocked
NCCCC[C@H](NC(=O)[C@@H](Cc1cc(Br)c(O)c(Br)c1)NC(=O)N1CCC(N2Cc3ccccc3NC2=O)CC1)C(=O)N1CCN(c2ccncc2)CC1 [olcegepant]			markedly reduced	markedly reduced	reduced histopathological scores	not affected; also recorded: Neither drug influenced C. difficile growth rate	reduced histopathological scores	reduced pathogen burden	can prevent oedema induced by TcdB2; also recorded: prevented	effect on C. difficile colonization and histopathological scores (C. difficile 630 Δerm [3]; Calcb KO mice): nor had an effect
fremanezumab (antibody, chains of the INN, looked up, V domains shown) VH: EVQLVESGGGLVQPGGSLRLSCAASGFTFSNYWISWVRQAPGKGLEWVAEIRSESDASATHYAEAVKGRFTISRDNAKNSLYLQMNSLRAEDTAVYYCLAYFDYGLAIQNYWGQGTLVTVSS VL: EIVLTQSPATLSLSPGERATLSCKASKRVTTYVSWYQQKPGQAPRLLIYGASNRYLGIPARFSGSGSGTDFTLTISSLEPEDFAVYYCSQSYNYPYTFGQGTKLEIK		reduced histopathological scores					reduced histopathological scores			

Reference: patent US20250064836A1 (priority 2023, published 2025)
